Source: article PMC13289212, “HIVIL: A human in vitro inflammatory liver model recapitulates immune-associated drug effects with high predictivity” (NAM journal, 2025)
Values joined by “and” are separate entries in the source; they are usually repeats but may differ in a detail not shown here. Identical values can stand only once.

Key:
[1] = FDA-labeling information; ref Chen et al. 2016; cited from earlier work
[2] = system: IL-6; set-up: method as in ref Hassan et al. 2016; Giustarini et al. 2019; Higuchi et al. 2012; Dik et al. 2018; conditions: ref Hassan et al. 2016; Giustarini et al. 2019; Higuchi et al. 2012; Dik et al. 2018; cited from earlier work
[3] = AlamarBlue cell viability in HIVIL; conditions: human
Procedure: (§1) Stock solutions of drugs were prepared in dimethyl sulfoxide (DMSO) and dissolved in medium prior to use. […] For these two drugs, the highest DMSO concentration was 1 %. Supernatant was collected at 48 hr for measurement of cytokines, and remaining cells were subjected to viability assay prior to lysis for RNA extraction.

[4] = system: HIVIL (iKCs co-cultured with iHeps); test: AlamarBlue cell viability in HIVIL
Procedure: as §1

[5] = system: IL-6; test: IL-6 ELISA in iPSC(F4)-derived HIVIL; format: cell-based, human
Procedure: Enzyme-linked immunosorbent assay (ELISA) for measurement of cytokines: Interleukin-6 (IL-6), interleukin-10 (IL-10) and tumor necrosis factor alpha (TNFα) levels in the media were measured using the corresponding human-based ELISA kits (Abcam, Cambridge, United Kingdom) according to manufacturer’s instructions. The cytokine production from dosed cells was normalized with the viability value from the same well. The normalized cytokine level upon drug treatments was further presented as percentage of DMSO+LPS. Normalization to viability per well ensures that any changes in cytokines are not due to changes in cell numbers upon drug treatment and normalization to DMSO+LPS allows better comparison between different batches of experiments. This normalization approach has been used in previous studies (Rose et al. 2016).

SMILES: N[C@@H]1[C@H]2CN(c3nc4c(cc3F)c(=O)c(C(=O)O)cn4-c3ccc(F)cc3F)C[C@@H]12 [TVX, Trovafloxacin]
- DILIrank [1]: most
- Reported in-vivo (murine) responses: IL-6 [2]: IL-6↑
- viability at 48 hr [3]: 63.4 ± 5%
- IC50 ([4]; Homo sapiens, 48 h, read-out: IC50: viability): 87.7 µM
- viability profiles among iHeps, iKCs and HIVIL ([4]; comparison of mono-cultures and co-culture): similar
- increase in IL-6 ([5]; 6.25 μM): 1.2 fold
- inhibition of IL-6 production ([5]; higher concentrations): 80% and 97%
